According to patent US20090306059A1, “CYCLIC AMINE DERIVATIVE HAVING SUBSTITUTED ALKYL GROUP” (priority 2005, published 2009):
Counter-ions that a name gives are not always drawn.

Key:
[1] = tested on: platelet aggregation caused by ADP in platelet-rich plasma (PRP); experiment: Test Example 1: in vitro platelet aggregation inhibitory effect; format: cell-based, rat (male Sprague-Dawley); settings: 10 μg/ml test compound; rat PRP; ADP final concentration 10 μM; maximum platelet aggregation ratio
Procedure: Male Sprague-Dawley rats (8-week old, Japan SLC, Inc.), 3 to 4 animals per group, were used for the test. The platelet aggregation was measured with an automatic platelet aggregometer (MCM Hema Tracer 313M, MC Medical, Inc.) by a partially modified method of Born et al., The Journal of Physiology, Vol. 168, Section 178 (1963). 6.3 ml of blood was sampled from the ventral aorta of a rat anesthetized with pentobarbital (40 mg/kg) using 3.8% (w/v) sodium citrate solution (0.7 ml) as an anticoagulant. The obtained blood containing citrate was centrifuged (230 g, 15 minutes, room temperature) to separate a platelet-rich plasma (hereinbelow abbreviated as PRP). The blood after the separation of PRP was further centrifuged (2,000 g, 10 minutes, room temperature) to separate a platelet-poor plasma (hereinbelow abbreviated as PPP). After the number of blood platelet in PRP was measured with a multi-item automatic blood corpuscle counter (KX-21N, Sysmex Corporation), PPP was added thereto to adjust the blood platelet count to 5×10^8/ml. After PRP (239 μl) was pipetted into cuvettes, test compounds (1 μl) dissolved in dimethylsulfoxide (DMSO) were added to PRP and the cuvettes were set in the automatic platelet aggregometer. DMSO (1 μl) was added in place of the test compounds for the control group. After preliminary warming (37° C.) for 1.5 minutes, 10 μl of adenosine 5′-diphosphate (ADP) solution (final concentration at 10 μM) was added to cause platelet aggregation. Platelet aggregation was measured for 5 minutes and the maximum platelet aggregation ratio was determined.

[2] = tested on: platelet aggregation caused by ADP in platelet-rich plasma (PRP) after oral administration; experiment: Test Example 2: ex vivo platelet aggregation inhibitory effect; format: in vivo, rat (male Sprague-Dawley); settings: 4 hours before blood sampling, rat PRP, ADP final concentration 3 μM, maximum platelet aggregation ratio; for inhibition at 10 mg/kg: 10 mg/kg orally, read-out: Test Example 1 (% inhibition) 10 mg/kg
Procedure: Male Sprague-Dawley rats (8-week old, Japan SLC, Inc.), 3 to 4 animals per group, were used for the test. The platelet aggregation was measured with an automatic platelet aggregometer (MCM Hema Tracer 313M, MC Medical, Inc.) by a partially modified method of Bom et al., The Journal of Physiology, Vol. 168, Section 178 (1963). Test compounds suspended in 5% Arabian gum solution or 10% dimethylacetamide/64% polyethylene glycol 400/16% Tween 80 solution were orally administered in a dose ratio of 1 mL/kg 4 hours before blood sampling. Vehicle was orally administered 4 hours in a dose ratio of 1 mL/kg before the sampling of the blood for the control group. 6.3 ml of blood was sampled from the ventral aorta of a rat anesthetized with pentobarbital (40 mg/kg) using 3.8% (w/v) sodium citrate solution (0.7 ml) as an anticoagulant. The obtained blood containing citrate was centrifuged (230 g, 15 minutes, room temperature) to separate PRP. The blood after the separation of PRP was further centrifuged (2,000 g, 10 minutes, room temperature) to separate PPP. After the number of blood platelet in PRP was measured with a multi-item automatic blood corpuscle counter (KX-21N, Sysmex Corporation), PPP was added thereto to adjust the blood platelet to 5×10^8/ml. After PRP (240 μl) was pipetted into cuvettes, the cuvettes were set in the automatic platelet aggregometer. After preliminary warming (37° C.) for 1.5 minutes, 10 μl of ADP solution (final concentration 3 μM) was added to cause platelet aggregation. Platelet aggregation was measured for 5 minutes and the maximum platelet aggregation ratio was determined.

Compound	inhibition at 10 µg/mL [1] [%]	inhibition at 10 mg/kg [2] [%]	inhibition at 3 mg/kg ([2]; 3 mg/kg orally, read-out: Test Example 1 (% inhibition) 3 mg/kg) [%]
O=C(O)CN1CCN(C/C=C2\CN(C(C(=O)C3CC3)c3ccccc3F)CCC2S)CC1=O (centres unmarked) [Example 15, (E)-3-{2-[4-(Carboxymethyl)-3-oxopiperazin-1-yl]ethylidene}-1-[2-cyclopropyl-1-(2-fluorophenyl)-2-oxoethyl]-4-sulfanylpiperidine dihydrochloride]	90		
COC(=O)CCN1CCN(C/C=C2\CN(C(C(=O)C3CC3)c3ccccc3F)CCC2S)CC1=O (centres unmarked) [Example 18, (E)-1-[2-Cyclopropyl-1-(2-fluorophenyl)-2-oxoethyl]-3-(2-{4-[2-(methoxycarbonyl)ethyl]-3-oxopiperazin-1-yl}ethylidene)-4-sulfanylpiperidine dihydrochloride]	73	74	
O=C(O)CCN1CCN(C/C=C2\CN(C(C(=O)C3CC3)c3ccccc3F)CCC2S)CC1=O (centres unmarked) [Example 19, (E)-3-(2-{4-[2-(Carboxyethyl)]-3-oxopiperazin-1-yl}ethylidene)-1-[2-cyclopropyl-1-(2-fluorophenyl)-2-oxoethyl]-4-sulfanylpiperidine dihydrochloride]	77	60	
CCOC(=O)CCN1CCN(C/C=C2\CN(C(C(=O)C3CC3)c3ccccc3F)CCC2S)C(=O)C1 (centres unmarked) [Example 22, (E)-1-[2-Cyclopropyl-1-(2-fluorophenyl)-2-oxoethyl]-3-(2-{4-[2-(ethoxycarbonyl)ethyl]-2-oxopiperazin-1-yl}ethylidene)-4-sulfanylpiperidine dihydrochloride]	67	79	
O=C(O)CCN1CCN(C/C=C2\CN(C(C(=O)C3CC3)c3ccccc3F)CCC2S)C(=O)C1 (centres unmarked) [Example 23, (E)-3-(2-{4-[2-(Carboxyethyl)]-2-oxopiperazin-1-yl}ethylidene)-1-[2-cyclopropyl-1-(2-fluorophenyl)-2-oxoethyl]-4-sulfanylpiperidine dihydrochloride]	77	72	
O=C(O)c1cnn(C/C=C2\CN(C(C(=O)C3CC3)c3ccccc3F)CCC2S)c1 (centres unmarked) [Example 44, (E)-3-[2-(4-Carboxy-1H-pyrazol-1-yl)ethylidene]-1-[2-cyclopropyl-1-(2-fluorophenyl)-2-oxoethyl]-4-sulfanylpiperidine hydrochloride]	81		61
CCOC(=O)c1cn(C/C=C2\CN(C(C(=O)C3CC3)c3ccccc3F)CCC2S)nn1 (centres unmarked) [Example 50, (E)-1-[2-Cyclopropyl-1-(2-fluorophenyl)-2-oxoethyl]-3-[2-(4-ethoxycarbonyl-1H-1,2,3-triazol-1-yl)ethylidene]-4-sulfanylpiperidine hydrochloride]	79		
O=C(O)c1cn(C/C=C2\CN(C(C(=O)C3CC3)c3ccccc3F)CCC2S)nn1 (centres unmarked) [Example 51, (E)-3-[2-(4-Carboxy-1H-1,2,3-triazol-1-yl)ethylidene]-1-[2-cyclopropyl-1-(2-fluorophenyl)-2-oxoethyl]-4-sulfanylpiperidine hydrochloride]	81		
O=C(O)Cc1cnn(C/C=C2\CN(C(C(=O)C3CC3)c3ccccc3F)CCC2S)c1 (centres unmarked) [Example 74, (E)-3-{2-[4-(Carboxymethyl)-1H-pyrazol-1-yl]ethylidene}-1-[2-cyclopropyl-1-(2-fluorophenyl)-2-oxoethyl]-4-sulfanylpiperidine hydrochloride]	80	100	
CN(C/C=C1\CN(C(C(=O)C2CC2)c2ccccc2F)CCC1S)CC(=O)O (centres unmarked) [Example 83, (E)-3-{2-[N-(Carboxymethyl)-N-methylamino]ethylidene}-1-[2-cyclopropyl-1-(2-fluorophenyl)-2-oxoethyl]-4-sulfanylpiperidine dihydrochloride]	68		
CN(C/C=C1/CN(C(C(=O)C2CC2)c2ccccc2F)CCC1S)CC(=O)O (centres unmarked) [Example 86, (Z)-3-{2-[N-(Carboxymethyl)-N-methylamino]ethylidene}-1-[2-cyclopropyl-1-(2-fluorophenyl)-2-oxoethyl]-4-sulfanylpiperidine dihydrochloride]	82		
CN(C/C=C1/CN(C(C(=O)C2CC2)c2ccccc2F)CCC1S)CCCC(=O)O (centres unmarked) [Example 91, (Z)-3-(2-{N-[3-(Carboxy)propyl]-N-methylamino}ethylidene)-1-[2-cyclopropyl-1-(2-fluorophenyl)-2-oxoethyl]-4-sulfanylpiperidine dihydrochloride]	74		
O=C(O)c1cnn(C/C=C2/CN(C(C(=O)C3CC3)c3ccccc3F)CCC2S)c1 (centres unmarked) [Example 111, (Z)-3-[2-(4-Carboxy-1H-pyrazol-1-yl)ethylidene]-1-[2-cyclopropyl-1-(2-fluorophenyl)-2-oxoethyl]-4-sulfanylpiperidine hydrochloride]	82	82	
